Experimental data: ChEMBL document CHEMBL1201862, “PubChem BioAssay data set” (2004)
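96-well plates; 48 h exposure; 5 concentrations. Endpoints by linear interpolation between flanking doses. Not reached: highest tested concentration assigned. GI50 marks 50% less growth.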 Activity calls are given as the source filed them. Cut-off read from the data, not from the text of the source: active = GI50 up to about 1.1 µM and inactive = higher.

Experiments:
Experiment in all cases: NCI anticancer screen, dose series, 48 h
RXF 393 = tested on: RXF 393
CCRF-CEM = tested on: CCRF-CEM
RPMI-8226 = tested on: RPMI-8226
Hs-578T = tested on: Hs-578T
PC-3 = tested on: PC-3
SK-OV-3 = tested on: SK-OV-3
SK-MEL-5 = tested on: SK-MEL-5
TK-10 = tested on: TK-10
MDA-MB-231 = tested on: MDA-MB-231
UACC-62 = tested on: UACC-62
M14 = tested on: M14
MDA-N = tested on: MDA-N
OVCAR-3 = tested on: OVCAR-3
HT-29 = tested on: HT-29
NCI-H522 = tested on: NCI-H522
SNB-75 = tested on: SNB-75
MOLT-4 = tested on: MOLT-4
SF-295 = tested on: SF-295

Measured: GI50

O=C(O)C(Cc1cccs1)C(=O)O
inactive: RXF 393 > 100 µM | CCRF-CEM > 100 µM | RPMI-8226 > 100 µM | Hs-578T > 100 µM | PC-3 > 100 µM | SK-OV-3 > 100 µM | SK-MEL-5 > 100 µM | TK-10 > 100 µM | MDA-MB-231 > 100 µM | UACC-62 > 100 µM | M14 > 100 µM | MDA-N > 100 µM | OVCAR-3 > 100 µM | HT-29 > 100 µM | NCI-H522 > 100 µM | SNB-75 > 100 µM

CC(C)/C(=N\[N+](C)(C)C)c1ccccc1
inactive: RXF 393 > 100 µM | MOLT-4 > 100 µM | CCRF-CEM > 100 µM | RPMI-8226 > 100 µM | Hs-578T > 100 µM | PC-3 > 100 µM | SK-OV-3 > 100 µM | SK-MEL-5 > 100 µM | TK-10 > 100 µM | MDA-MB-231 > 100 µM | UACC-62 > 100 µM | M14 > 100 µM | MDA-N > 100 µM | OVCAR-3 > 100 µM | HT-29 > 100 µM | NCI-H522 > 100 µM | SNB-75 > 100 µM | SF-295 > 100 µM

CN(C)Cc1cc(C(=O)/C=C/c2ccc(F)cc2)cc(CN(C)C)c1O
inactive: RXF 393 12.9 µM | MOLT-4 19.5 µM | CCRF-CEM 17 µM | RPMI-8226 22.5 µM | Hs-578T 24.7 µM | PC-3 27.5 µM | SK-MEL-5 19.1 µM | TK-10 85.9 µM | MDA-MB-231 31 µM | UACC-62 3.14 µM | M14 12.4 µM | MDA-N > 10 µM | OVCAR-3 9.23 µM | HT-29 23 µM | NCI-H522 15.2 µM | SNB-75 22.9 µM | SF-295 14 µM

CC12Nc3c(Cl)cc(Cl)cc3N1C(=O)c1ccccc12 (stereo not drawn)
inactive: RXF 393 78.3 µM | MOLT-4 58.7 µM | CCRF-CEM > 100 µM | RPMI-8226 > 100 µM | Hs-578T 48 µM | PC-3 > 100 µM | SK-OV-3 > 100 µM | SK-MEL-5 > 100 µM | TK-10 42.2 µM | MDA-MB-231 > 100 µM | UACC-62 > 100 µM | MDA-N > 100 µM | OVCAR-3 > 100 µM | HT-29 > 100 µM | NCI-H522 97.1 µM | SNB-75 > 100 µM | SF-295 > 100 µM

CCC1(O)CN(CCOC)[C@H]2C[C@@H]1C(=O)c1[nH]c3ccccc3c12 (stereo partly drawn)
inactive: RXF 393 > 100 µM | MOLT-4 > 100 µM | CCRF-CEM > 100 µM | RPMI-8226 > 100 µM | Hs-578T > 100 µM | PC-3 > 100 µM | SK-MEL-5 > 100 µM | TK-10 > 100 µM | MDA-MB-231 > 100 µM | M14 > 100 µM | MDA-N > 100 µM | OVCAR-3 > 100 µM | HT-29 > 100 µM | NCI-H522 > 100 µM | SNB-75 > 100 µM | SF-295 > 100 µM

CS/C=C\C(=O)O[C@H]1C[C@@H]2[C@@H](O)c3occ(C)c3C[C@]2(C)[C@@H](C)C1
inactive: RXF 393 22.9 µM | MOLT-4 20.7 µM | CCRF-CEM 27.3 µM | RPMI-8226 30.4 µM | Hs-578T 29.6 µM | PC-3 41.2 µM | SK-OV-3 36.6 µM | SK-MEL-5 14.9 µM | TK-10 50 µM | MDA-MB-231 22.4 µM | UACC-62 17.9 µM | M14 20.3 µM | MDA-N 20.3 µM | OVCAR-3 16.4 µM | HT-29 22.6 µM | NCI-H522 23.2 µM | SF-295 29.6 µM

CSc1c(C#N)c(N)n(-c2ccc(C)cc2)c(=O)c1C#N
inactive: RXF 393 > 100 µM | MOLT-4 > 100 µM | CCRF-CEM 94.8 µM | RPMI-8226 > 100 µM | Hs-578T > 100 µM | PC-3 > 100 µM | SK-OV-3 > 100 µM | SK-MEL-5 > 100 µM | TK-10 > 100 µM | MDA-MB-231 > 100 µM | UACC-62 > 100 µM | M14 > 100 µM | MDA-N > 100 µM | OVCAR-3 > 100 µM | HT-29 > 100 µM | NCI-H522 98.9 µM | SNB-75 > 100 µM

O=C(O)c1cccc(C(=O)O)c1[S+]([O-])Cc1ccccc1 (stereo not drawn)
inactive: RXF 393 > 100 µM | RPMI-8226 > 100 µM | Hs-578T > 100 µM | PC-3 > 100 µM | SK-OV-3 > 100 µM | SK-MEL-5 > 100 µM | TK-10 > 100 µM | MDA-MB-231 > 100 µM | UACC-62 > 100 µM | M14 > 100 µM | MDA-N > 100 µM | OVCAR-3 > 100 µM | HT-29 > 100 µM | NCI-H522 > 100 µM | SNB-75 > 100 µM | SF-295 > 100 µM

COc1ccc(C2C=C(c3ccccc3)Nc3nnnn32)cc1 (stereo not drawn)
inactive: RXF 393 20.3 µM | MOLT-4 > 100 µM | CCRF-CEM > 100 µM | RPMI-8226 51.9 µM | Hs-578T 40.6 µM | PC-3 49 µM | SK-OV-3 31.7 µM | SK-MEL-5 34.4 µM | TK-10 6.27 µM | MDA-MB-231 26.6 µM | UACC-62 50.4 µM | M14 68.2 µM | MDA-N 45.1 µM | OVCAR-3 24.9 µM | HT-29 18.1 µM | NCI-H522 17.9 µM | SF-295 31 µM

N#CC(C#N)=C1C(C#N)=C(N)NC12OCCO2
inactive: RXF 393 > 100 µM | MOLT-4 > 100 µM | CCRF-CEM > 100 µM | RPMI-8226 > 100 µM | Hs-578T > 100 µM | PC-3 > 100 µM | SK-OV-3 > 100 µM | SK-MEL-5 > 100 µM | TK-10 > 100 µM | MDA-MB-231 > 100 µM | UACC-62 > 100 µM | M14 > 100 µM | MDA-N > 100 µM | HT-29 > 100 µM | NCI-H522 > 100 µM | SF-295 > 100 µM

CN(C)CCCN1C(=O)N(CCCN(C)C)c2c3cc(O)ccc3nc3c([N+](=O)[O-])ccc1c23
inactive: RXF 393 11.9 µM | RPMI-8226 32.6 µM | Hs-578T 21.5 µM | PC-3 8.24 µM | SK-OV-3 32.7 µM | SK-MEL-5 15.5 µM | TK-10 21.3 µM | MDA-MB-231 11.6 µM | UACC-62 11.9 µM | M14 32.7 µM | MDA-N 37.3 µM | OVCAR-3 26.1 µM | HT-29 11.8 µM | NCI-H522 6.92 µM | SNB-75 29.3 µM | SF-295 34.4 µM

Cc1cc(C)c2c(=O)n(CN3CCN(c4ccccc4)CC3)sc2n1
inactive: RXF 393 12.6 µM | MOLT-4 20.1 µM | CCRF-CEM 9.59 µM | Hs-578T 70.1 µM | PC-3 19.4 µM | SK-OV-3 > 100 µM | SK-MEL-5 28.3 µM | TK-10 49.5 µM | MDA-MB-231 20.4 µM | UACC-62 53.2 µM | M14 24.5 µM | MDA-N 23.7 µM | OVCAR-3 36.6 µM | HT-29 18.7 µM | NCI-H522 14.4 µM | SNB-75 15.8 µM | SF-295 > 100 µM

O=C(O)[C@@H]1[C@H](C(=O)O)[C@H](C(=O)O)C[C@@H]1C(=O)O
inactive: RXF 393 > 100 µM | MOLT-4 > 100 µM | RPMI-8226 > 100 µM | Hs-578T > 100 µM | PC-3 > 100 µM | SK-OV-3 > 100 µM | SK-MEL-5 > 100 µM | TK-10 > 100 µM | MDA-MB-231 > 100 µM | UACC-62 > 100 µM | M14 > 100 µM | MDA-N > 100 µM | OVCAR-3 > 100 µM | HT-29 > 100 µM | NCI-H522 > 100 µM | SNB-75 > 100 µM | SF-295 > 100 µM

O=c1c2ccccc2n2n1Cc1ccccc1C2
inactive: RXF 393 > 100 µM | MOLT-4 > 100 µM | CCRF-CEM > 100 µM | RPMI-8226 > 100 µM | Hs-578T 57.9 µM | PC-3 > 100 µM | SK-OV-3 > 100 µM | SK-MEL-5 > 100 µM | TK-10 > 100 µM | MDA-MB-231 > 100 µM | UACC-62 > 100 µM | MDA-N > 100 µM | OVCAR-3 > 100 µM | HT-29 > 100 µM | NCI-H522 > 100 µM | SNB-75 58.3 µM | SF-295 > 100 µM

CC(=O)Nc1ccc(S(=O)(=O)N=S(C)C)cc1
inactive: RXF 393 > 100 µM | MOLT-4 > 100 µM | CCRF-CEM > 100 µM | RPMI-8226 > 100 µM | Hs-578T > 100 µM | PC-3 > 100 µM | SK-OV-3 > 100 µM | TK-10 > 100 µM | MDA-MB-231 > 100 µM | UACC-62 > 100 µM | M14 > 100 µM | MDA-N > 100 µM | OVCAR-3 > 100 µM | HT-29 > 100 µM | NCI-H522 > 100 µM | SNB-75 > 100 µM | SF-295 > 100 µM

CCOC(=O)C1=COC(C)(C)CC1=O
inactive: RXF 393 > 100 µM | MOLT-4 > 100 µM | RPMI-8226 > 100 µM | Hs-578T > 100 µM | PC-3 > 100 µM | SK-OV-3 > 100 µM | SK-MEL-5 > 100 µM | TK-10 > 100 µM | MDA-MB-231 > 100 µM | UACC-62 > 100 µM | M14 > 100 µM | MDA-N > 100 µM | OVCAR-3 > 100 µM | HT-29 > 100 µM | NCI-H522 > 100 µM | SNB-75 > 100 µM | SF-295 > 100 µM
